The subject of one assay is CD80. The assay is described as follows: Evaluation of stimulus to activate innate immune system: expression of CD80 in cultured mice spleen cells (flow cytometry). Particulars: solution (5 μL) of sample added alone: peptide, OVA 800 μg/mL, DLPC 1000 nmol/mL, deoxycholic acid 1600 nmol/mL; FIG. 8(B).
The test system of assay [1] is CTL (IFNγ-secreting cells/total CD8 positive cells). The assay is described as follows: Evaluation of CTL induction rate, ICS method, after immunization of mice. The assay is classed as in vivo, C57BL/6N mice. Conditions: antigen peptide (80 μg); MPL content 0.227 or equivalent; DLPC, deoxycholic acid (160 nmol); subcutaneous once; FIGS. 3 and 4. As to the method: Administration (100 μL/head) was performed by subcutaneous injection at one position on the back under anesthesia. […] For evaluation of cell-mediated immunity, administration was performed once and the assay was performed seven days after administration. For evaluation of humoral immunity, administration was performed twice. The second administration was performed 14 days after the first administration, and assay was performed seven days after the second administration.
The mice were sacrificed on the seventh day after the last administration and had its spleen harvested. The spleen was given RPMI medium (3.0 mL) containing 10% serum and then treated by the BD Falcon cell strainer. Thus there was obtained a suspension of cells. […] The cells were dispersed into RPMI medium containing 10% serum. The number of cells was counted. Thus there was obtained a dispersion of spleen cells.
For restimulation of the antigen, 10% serum-containing RPMI medium (100 μL) containing OVA peptide (40 μg/mL) was added, followed by incubation for three hours. Then, BD GolgiPlug was added such that its concentration was 0.2 μL/100 μL. Cell culture was performed overnight. In the case where the restimulation was not given, a 10% serum-containing RPMI medium not containing OVA peptide was used.
After washing, the cells were stained with Anti-CD8aPE (at 4° C. for 30 minutes), followed by washing again. Then the cells were permeabilized with Cytofix/Cytoperm. After washing, the cells were stained with Anti-IFNγFITC (at 4° C. for 30 minutes). […] CTL induction rate was calculated in terms of the ratio between the IFNγ secreting cells and the total CD8 positive cells.
It is known that MPL activates innate immune system and functions as an adjuvant even when used alone. It is also known that MPL induces cell-mediated immunity. Thus, a comparison was made as to the induction of cell-mediated immunity between MPL used alone and MPL used in combination with a pH-sensitive carrier in the form of the adjuvant composition. Each of the MPL and the adjuvant composition is administered together with an antigen. […] The above-mentioned solution or dispersion was subcutaneously administered once to the back of C57BL/6N mice, and the CTL induction rate was obtained according to the ICS method. The CTL induction rate is expressed in terms of the ratio of the IFNγ-secreting cells to the total CD8 positive cells in a specific area which is hardly affected by dead cells (IFNγ-secreting cells/total CD8 positive cells).

Assay [2] deals with IFNγ-secreting cells in the spleen. The assay is described as follows: ELIspot method (IFNγ spots) after immunization of mice. Type of assay: in vivo, C57BL/6N mice. Particulars: antigen OVA peptide; DLPC, deoxycholic acid (160 nmol), MPL content 0.227; 2×10^6 cells/well; FIG. 2. On the procedure: Administration (100 μL/head) was performed by subcutaneous injection at one position on the back under anesthesia. The dose of the amphipathic substance was 100 nmol/head; the dose of the pH-sensitive compound was 10 to 640 nmol/head; MPL content was 0.0227 to 22.7 nmol/head; and the amount of the antigen was 3.2 to 400 μg/head. For evaluation of cell-mediated immunity, administration was performed once and the assay was performed seven days after administration. For evaluation of humoral immunity, administration was performed twice. The second administration was performed 14 days after the first administration, and assay was performed seven days after the second administration.
The mice were sacrificed on the seventh day after the last administration and had its spleen harvested. […] The number of cells was counted. […]
The ELIspot method was practiced by using the Mouse IFNγ ELISPOT Set. One day before cell inoculation, the 96-well ELIspot plate was allowed to adsorb the detection antibody attached to the kit, so that the plate was made ready for use. […]
Samples used for comparison include a solution of the peptide alone, a dispersion of the pH-sensitive carrier (DLPC-deoxycholic acid) and the peptide, and a solution of incomplete Freund's adjuvant (IFA) and peptide. […] The number of IFNγ-secreting cells in the spleen was counted, and the CTL induction was evaluated.

Protocol for CD80: The evaluation of stimulus to activate innate immune system was performed as follows.
A spleen was harvested from C57BL/6N mice. The harvested spleen was injected with 500 μL of collagenase solution, 2 mg/mL (prepared with RPMI medium) followed by incubation at 37° C. for 30 minutes. The spleen was made into cell suspension by treatment with BD Falcon cell strainer. The cells underwent hemolysis with RBC lysis buffer, followed by washing with RPMI medium. The cells were dispersed into RPMI medium, and the number of cells was counted. The cells were used for the subsequent procedure.
The cells were inoculated into a 96-well dish such that 1.0×10^6 cells/100 μL. The cell dispersion was given 100 μL of RPMI medium containing a dispersion of different kind, followed by incubation overnight. These procedures were performed by using serum-free RPMI medium.
The cells were recovered and washed with BD stain buffer. Then, the cells underwent incubation together with Anti-CD11cFITC, 0.25 μg/100 μL (4° C. for 30 minutes), so that the cells were stained. After washing, the cells underwent again incubation with Anti-CD80PE, Anti-CD86PE, or Anti-CD40PE, 0.25 μg/100 μL (4° C. for 30 minutes), so that the cells were stained. After washing at least more than three times, the cells were evaluated by using the flow cytometer (Cytomics FC500, Software: CXP software ver. 2).

For SIINFEKL [peptide alone], the “fluorescence intensity of CD80PE compared with PBS” value with CD80 is reported as “remained unchanged from that in the case where PBS was added”. In assay [1], the CTL induction rate stood at 0.14%. For the same sequence, the “number of IFNγ spots compared with untreated sample” value in assay [2] is given as “equivalent number of spots as the untreated sample”.
